Values of other authors, collected in patent US6543389B2, “Insecticidal pet collar” (Pfizer Inc., priority 2001, dated 2003).

What was measured:
ticks [1] = conditions: as compared with fipronil
ticks [2] = conditions: collars as currently marketed, extruded matrix containing about 9% by weight of amitraz
alpha-2 adrenoceptor = conditions: affected dogs, injected intramuscularly

Structure (SMILES): Cc1ccc(N=CN(C)C=Nc2ccc(C)cc2C)c(C)c1 [Amitraz, 1,5-di-(2,4-dimethylphenyl)-3-methyl-1,3,5-triazapenta-1,4-diene]
- effect on numbers of live feeding ticks, egg hatchability, and larval viability (ticks [1]): significantly greater effect
- duration of tick protection (ticks [2]): about four

Structure (SMILES): CCC1(c2c[nH]cn2)Cc2ccccc2C1 [atipamezole, 4-(2-ethyl-2,3-dihydro-1H-inden-2-yl)-1H-imidazole]
- reversing effects of amitraz toxicosis (alpha-2 adrenoceptor): effective in reversing effects of amitraz toxicosis
